Results: paper PMC12016938, “A small molecule PKCε inhibitor reduces hyperalgesia induced by paclitaxel or opioid withdrawal” (JCI Insight, 2025)
Values joined by “and” are separate entries in the source; they are usually repeats but may differ in a detail not shown here. Equal values may be shown once. Read-outs that look alike come from different tables or passages of the source.

Assay: Pharmacokinetic studies in rats (plasma and brain)
Assay type: in vivo
Settings: for Kp at 2 h / Kp at 24 h / concentration at 2 h / concentration at 24 h / Plasma concentration / Brain/Plasma / Plasma 2h/24h: rat; for concentration at 2 h / concentration at 24 h: read-out: Brain concentration
Protocol: Because binding to plasma protein was approximately 90%, we predicted that the free concentration at each time point was 10 times lower than the measured plasma concentration.
Pharmacokinetic studies in rats. Pharmacokinetics studies were contracted to the Drug Metabolism and Pharmacokinetics Core at Scripps Research. CP612 was dissolved at in 10% Tween-80/90% water and administered at 40 mg/kg/5 mL. Six rats were injected i.v. and 6 were injected i.p. Three rats were used to collect a full plasma time course from 5 minutes to 24 hours after dose. Then, brains were collected from these rats at 24 hours and from 3 additional rats at 2 hours after administration of compound. One rat receiving i.p. administration of CP612 was excluded as it had low/nondetectable levels indicating missed i.p. injection in that rat. Plasma samples were diluted 10-fold in blank plasma. Each brain was disrupted in potassium phosphate buffer (pH 7.4; 9 μL per 1mg tissue) on ice using brief sonication pulses. CP612 was detected with an API Triple Quad 5500 LC-MS/MS (SCIEX) using an MRM(+) method: CP612 (463/282, m/z) with carbamazepine (238/195.1, m/z) as an internal standard.

[1] = i.p. 40 mg/kg, 2h, individual rat, 40 mg/kg
[2] = i.p. 40 mg/kg, 24h, individual rat, 40 mg/kg
[3] = i.v. 40 mg/kg, 2h, individual rat, 40 mg/kg

For N[C@H](CNC(=O)C1(c2ccc(Cl)cc2)CCCC1)c1ccc(C(=O)Nc2ccncc2)cc1 [CP612], the “Brain level between 2 hours and 24 hours” value (40 mg/kg i.p.) was “remained stable”, the “Decrease of plasma level between 2 hours and 24 hours” value (40 mg/kg i.p.) was “about 30 fold” and the “Decrease of brain level between 2 hours and 24 hours” value (40 mg/kg i.v.) was “less than 2 fold”. For the same molecule, the “Decrease of plasma level between 2 hours and 24 hours” value (40 mg/kg i.v.) was “about 70 fold”, the “Predicted free concentration relative to measured plasma concentration” value (from approx. 90% plasma protein binding) was 10 times lower and the Kp at 2 h (brain, ip, 40 mg/kg, 40 mg/kg i.p., 2 hours, read-out: Brain/plasma concentration ratio) was 0.03 ± 0.009. It also gave a Kp at 24 h (brain, ip, 40 mg/kg, 40 mg/kg i.p., 24 hours, read-out: Brain/plasma concentration ratio) of 1.18 ± 0.42, a concentration at 2 h (brain, ip, 40 mg/kg, i.p. 40 mg/kg, 2h, mean all rats) of 494 nM and a Kp at 2 h (brain, ip, 40 mg/kg, i.p. 40 mg/kg, 2h, mean all rats, read-out: Brain/Plasma) of 0.0312. The concentration at 2 h (brain, ip, 40 mg/kg, i.p. 40 mg/kg, 2h, mean of Plasma 2h, Brain 2h rats) was 494 nM, the Kp at 2 h (brain, ip, 40 mg/kg, i.p. 40 mg/kg, 2h, mean of Plasma 2h, Brain 2h rats, read-out: Brain/Plasma) was 0.0312 and the concentration at 24 h (brain, ip, 40 mg/kg, i.p. 40 mg/kg, 24h, individual rat) was 609 nM. For the same molecule, the concentration at 24 h (brain, ip, 40 mg/kg, i.p. 40 mg/kg, 24h, mean all rats) was 540 nM, the Kp at 24 h (brain, ip, 40 mg/kg, i.p. 40 mg/kg, 24h, mean all rats, read-out: Brain/Plasma) was 1.18 and the concentration at 24 h (brain, ip, 40 mg/kg, i.p. 40 mg/kg, 24h, mean of RM Plasma + Brain 24h rats) was 540 nM. The Kp at 24 h (brain, ip, 40 mg/kg, i.p. 40 mg/kg, 24h, mean of RM Plasma + Brain 24h rats, read-out: Brain/Plasma) was 1.18, the Kp at 2 h (brain, iv, 40 mg/kg, 40 mg/kg i.v., 2 hours, read-out: Brain/plasma concentration ratio) was 0.16 ± 0.03 and the Kp at 24 h (brain, iv, 40 mg/kg, 40 mg/kg i.v., 24 hours, read-out: Brain/plasma concentration ratio) was 9.17 ± 3.19. For the same molecule, the concentration at 2 h (brain, iv, 40 mg/kg, i.v. 40 mg/kg, 2h, individual rat) was 2290 nM, the Kp at 2 h (brain, iv, 40 mg/kg, i.v. 40 mg/kg, 2h, individual rat, read-out: Brain/Plasma) was 0.15 and the concentration at 2 h (brain, iv, 40 mg/kg, i.v. 40 mg/kg, 2h, mean all rats) was 2630 nM. For the same molecule, the Kp at 2 h (brain, iv, 40 mg/kg, i.v. 40 mg/kg, 2h, mean all rats, read-out: Brain/Plasma) was 0.163, the concentration at 2 h (brain, iv, 40 mg/kg, i.v. 40 mg/kg, 2h, mean of Plasma 2h, Brain 2h rats) was 2630 nM and the Kp at 2 h (brain, iv, 40 mg/kg, i.v. 40 mg/kg, 2h, mean of Plasma 2h, Brain 2h rats, read-out: Brain/Plasma) was 0.163. For the same molecule, the concentration at 24 h (brain, iv, 40 mg/kg, i.v. 40 mg/kg, 24h, mean all rats) was 1460 nM, the Kp at 24 h (brain, iv, 40 mg/kg, i.v. 40 mg/kg, 24h, mean all rats, read-out: Brain/Plasma) was 9.17 and the concentration at 24 h (brain, iv, 40 mg/kg, i.v. 40 mg/kg, 24h, mean of RM Plasma + Brain 24h rats) was 1460 nM. It also gave a Kp at 24 h (brain, iv, 40 mg/kg, i.v. 40 mg/kg, 24h, mean of RM Plasma + Brain 24h rats, read-out: Brain/Plasma) of 9.17, a Plasma concentration (i.p. 40 mg/kg, 15min, individual rat, 40 mg/kg) of 21815.2 nM and a Plasma concentration (i.p. 40 mg/kg, 30min, individual rat, 40 mg/kg) of 20540.8 nM. The Brain/Plasma [1] was 0.02 and 0.0252 and 0.05, the Plasma concentration [1] was 15033 nM and 14212.3 nM and 13650.7 nM and 17581.8 nM and the concentration at 2 h [1] was 280.8 nM and 343.4 nM and 857.5 nM. It also gave a Plasma concentration (i.p. 40 mg/kg, 4h, individual rat, 40 mg/kg) of 6479.8 nM, a Plasma concentration (i.p. 40 mg/kg, 6h, individual rat, 40 mg/kg) of 1874.8 nM and a Plasma concentration (i.p. 40 mg/kg, 8h, individual rat, 40 mg/kg) of 1974.2 nM. The Brain/Plasma [2] was 1.60 and 0.76, the Plasma concentration [2] was 615.6 nM and the concentration at 2 h [2] was 470.9 nM. The “Plasma 2h/24h” value (i.p. 40 mg/kg, individual rat, 40 mg/kg) was 37.8409 and 24.4211, the “Plasma 2h/24h” value (i.p. 40 mg/kg, mean all rats) was 31.1310 and the “Plasma 2h/24h” value (i.p. 40 mg/kg, mean of RM Plasma + Brain 24h rats) was 31.1310. The Plasma concentration (i.v. 40 mg/kg, 5min, individual rat, 40 mg/kg) was 73005.3 nM and 87692.8 nM, the Plasma concentration (i.v. 40 mg/kg, 15min, individual rat, 40 mg/kg) was 49462.2 nM and 51406.1 nM and the Plasma concentration (i.v. 40 mg/kg, 30min, individual rat, 40 mg/kg) was 35638.7 nM and 16847.4 nM and 33046.8 nM. The Plasma concentration (i.v. 40 mg/kg, 1h, individual rat, 40 mg/kg) was 23543.1 nM and 24623.1 nM, the Brain/Plasma [3] was 0.22 and 0.12 and the Plasma concentration [3] was 15313.8 nM and 16653 nM and 15983.4 nM and 12333.1 nM and 12074 nM. The concentration at 2 h [3] was 3671.9 nM and 1922.3 nM and the Plasma concentration (i.v. 40 mg/kg, 4h, individual rat, 40 mg/kg) was 4017.5 nM and 4341.4 nM.
